Where a SMILES comes first, the peptide text is derived from it. [ ]: non-standard residue; d: D form. dPhe(4-Cl) = N[C@H](Cc1ccc(Cl)cc1)C(=O)O; NMeL = CN[C@@H](CC(C)C)C(=O)O; pGlu = O=C1CC[C@@H](C(=O)O)N1; ΔPro = O=C(O)[C@@H]1C=CCN1
Tests used:
male rats = experiment: 14-day daily injection in male rats: gonadal function, hormones, androgen-dependent behavior, fertility and recovery; assay type: in vivo, rat; conditions: 1 milligram daily for 14 days
From the text: The peptide is used at a level effective to reduce testes and seminal vesicles weights and also to inhibit spermatogenesis after a 14-day administration to male rats. […] Prostate weights of male rats recover in 2-3 weeks and seminal vesicles weights in 4-5 weeks. It is preferred to use dosage levels in the range of from about 0.1 to about 1 milligram per rat per day, which can be administered without detrimental side effects.
(§1) Male rats (about 320 grams each) are each treated with 1 milligram of the peptide synthesized in Example I, once a day, for 14 days by injection in 0.2 ml. of corn oil. All the rats show a decrease in testes and seminal vesicles weight, spermatogenesis and plasma androgen levels.
Full recovery of testes and seminal vesicle weights, androgen-dependent behavior and spermatogenesis ultimately occurs following cessation of the 14-day peptide administration. […] Fertility, as assessed by the ability to impregnate females, is restored in all of the rats which have not been sacrificed within 6 weeks after cessation of the injections.
as §1, with “A first group (I) of male” for “Male”, “Peptide A” for “the peptide”, “III, every day” for “I, once a day,”, “days,” for “days”, “levels. […]” for “levels.”

[1] = tested on: release of gonadotropins by the pituitary gland; conditions: versus [des His2]-LRF; cited from earlier work

| Molecule | side effects / damage (male rats) | potency as inhibitor of the release of gonadotropins, relative to the same peptide with Gly in the 6-position [1] [times more potent] |
| --- | --- | --- |
| CC(=O)N1CC=C[C@H]1C(=O)N[C@H](Cc1ccc(Cl)cc1)C(=O)N[C@H](Cc1c[nH]c2ccccc12)C(=O)N[C@@H](CO)C(=O)N[C@@H](Cc1ccc(O)cc1)C(=O)N[C@H](Cc1c[nH]c2ccccc12)C(=O)N(C)[C@@H](CC(C)C)C(=O)N[C@@H](CCCNC(=N)N)C(=O)N1CCC[C@H]1C(=O)NCC(N)=O [Example I, [Ac-dehydro Pro^1, pCl--D--Phe^2, D--Trp^3,6, NαMeLeu^7]-LRF] (Ac-[ΔPro][dPhe(4-Cl)][dW]SY[dW][NMeL]RPG-NH2) | without harmful side effects or irreversible damage | – |
| [pGlu]WSY[dA]LRPG-NH2 [[des His^2, D-Ala^6]-LRF] | – | 3 |

From patent US4489061A, “Treatment of male mammals” (The Salk Institute for Biological Studies, priority 1982, dated 1984)
